Like-named read-outs stand apart in the source and are kept apart here.
Key:
HePTP = target: T1, HePTP (Homo sapiens, UniProt P35236); assay: biochemical
T1 sequence (P35236 65-360): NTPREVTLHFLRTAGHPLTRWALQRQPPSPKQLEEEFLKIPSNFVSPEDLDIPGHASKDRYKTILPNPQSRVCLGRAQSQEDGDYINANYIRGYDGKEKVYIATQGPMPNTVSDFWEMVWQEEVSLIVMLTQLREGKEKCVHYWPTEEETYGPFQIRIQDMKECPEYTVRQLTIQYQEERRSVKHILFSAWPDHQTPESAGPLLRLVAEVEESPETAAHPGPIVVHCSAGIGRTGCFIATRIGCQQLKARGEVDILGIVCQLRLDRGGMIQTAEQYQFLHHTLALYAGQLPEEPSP

LMPTP-A = target: T2, LMPTP-A (Homo sapiens, UniProt P24666); assay: biochemical
T2 sequence (P24666 1-158): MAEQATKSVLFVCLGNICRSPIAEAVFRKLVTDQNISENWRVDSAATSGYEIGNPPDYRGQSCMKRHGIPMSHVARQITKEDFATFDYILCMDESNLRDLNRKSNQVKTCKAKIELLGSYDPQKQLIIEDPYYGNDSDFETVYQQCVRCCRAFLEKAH

CD45 = target: T3, CD45 (Homo sapiens, UniProt P08575); assay: Counter-screen phosphatase assay CD45; format: biochemical; details: Table II
T3 construct: The catalytic domain of CD45 was purchased from Biomol Inc; purchased Biomol Inc
T3 sequence (P08575 653-912 limits assumed): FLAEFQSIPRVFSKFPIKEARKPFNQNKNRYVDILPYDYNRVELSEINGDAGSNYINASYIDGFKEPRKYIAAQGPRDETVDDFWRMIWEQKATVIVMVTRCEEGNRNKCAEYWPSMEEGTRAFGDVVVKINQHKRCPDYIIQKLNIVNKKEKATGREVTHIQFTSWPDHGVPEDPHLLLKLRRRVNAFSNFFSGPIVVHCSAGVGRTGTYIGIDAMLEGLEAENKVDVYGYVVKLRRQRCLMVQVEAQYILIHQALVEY
Method: Materials, chemicals and enzymes. All chemicals were purchased from commercial sources unless otherwise noted. Compounds were dissolved in DMSO, and stock solutions were stored at −20° C. The catalytic domain of CD45 was purchased from Biomol Inc.

LYP/PTPN22 = target: T4, LYP/PTPN22 (Homo sapiens, UniProt Q9Y2R2); assay: biochemical
T4 construct: catalytic domains of LYP (aa 2-309) and PTP-PEST (aa 2-323, PEST); 6xHis (N, cleaved yes); made in house; host or cells: E. coli BL21
T4 sequence (Q9Y2R2 2-309): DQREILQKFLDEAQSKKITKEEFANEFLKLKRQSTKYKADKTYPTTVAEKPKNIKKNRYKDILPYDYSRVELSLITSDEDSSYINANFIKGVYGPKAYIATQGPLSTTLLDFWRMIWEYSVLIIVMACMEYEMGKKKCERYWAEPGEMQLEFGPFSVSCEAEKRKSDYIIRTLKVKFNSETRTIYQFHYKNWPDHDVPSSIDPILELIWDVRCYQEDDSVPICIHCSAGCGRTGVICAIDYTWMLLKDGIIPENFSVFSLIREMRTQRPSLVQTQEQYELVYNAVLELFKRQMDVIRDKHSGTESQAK
Method: Chemical Library Screening for LYP Inhibitors. A library consisting of a highly diverse set of 4,000 compounds was screened in a 96-well format in an assay specific for LYP activity. […] The reaction mixture with the compounds was incubated for 25 min at 37° C. […] All assays were done in triplicate. The IC50 values were then determined for each drug from a plot of log [drug concentration] versus percentage of enzyme inhibition. Absorbance data were measured using a Molecular Devices Emax Precision Microplate reader.
Identification of Compounds as LYP Inhibitors. We initially screened a library of 4000 drug-like small-molecule compounds against LYP/PTPN22, using p-nitrophenyl phosphate (pNPP) as a substrate. The ability of the library members to inhibit LYP/PTPN22 catalyzed hydrolysis of pNPP was measured in a buffer containing 50 mM Bis-Tris pH 6.0, 1 mM DTT at 37° C.

PTP-PEST = target: T5, PTP-PEST (Homo sapiens, UniProt Q05209); assay: Counter-screen phosphatase assay PTP-PEST; format: biochemical
T5 sequence (Q05209 2-323): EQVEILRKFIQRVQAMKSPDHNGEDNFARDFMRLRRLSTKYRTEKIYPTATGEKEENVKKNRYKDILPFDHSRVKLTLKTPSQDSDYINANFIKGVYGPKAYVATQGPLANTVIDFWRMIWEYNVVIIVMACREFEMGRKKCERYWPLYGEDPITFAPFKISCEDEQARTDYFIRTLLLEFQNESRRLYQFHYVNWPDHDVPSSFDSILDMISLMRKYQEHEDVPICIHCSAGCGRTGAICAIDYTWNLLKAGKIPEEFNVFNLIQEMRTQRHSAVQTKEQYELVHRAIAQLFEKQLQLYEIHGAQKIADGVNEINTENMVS

[1] = system: phosphorylation of Lck at Tyr394; assay: Anti-pSrc (Tyr416) immunoblot of thymocytes from PTPN22-/- mice; details: 50 μM, 1 h, anti-CD3/anti-CD4 plus streptavidin
Method: (§1) The volume of DMSO added was held constant at less than 2% of the total volume. Thymocytes pre-incubated with DMSO or inhibitor were divided into 200 μL aliquots containing 10×10^6 cells, treated with biotinylated CD3 and CD4 antibodies for 30 min and stimulated with the crosslinker, streptavidin for 1.5 min, or left untreated.
(§2) Aliquots of lysates were suspended in SDS sample buffer, heated at 95° C. for 5 minutes and the boiled samples run on 10% SDS-polyacrylamide gels. Proteins resolved by gel electrophoresis were transferred onto nitrocellulose membranes (Hybond ECL, GE Healthcare), using appropriate dilutions of unconjugated primary antibodies followed by HRP-conjugated secondary antibodies (purchased from GE Healthcare). Blots were developed with the enhanced chemiluminescence detection system, ECL-Plus, following manufacturers directions.
(§3) In parallel, the compound was also tested on T cells from normal PTPN22+/+ mice.

ERK1/2 phosphorylation = assay: Anti-pERK1/2 blot of JTAg cells; details: 50 μM, 1 h
Method: (§4) The volume of DMSO added was held constant at less than 2% of the total volume. JTAg cells pre-incubated with DMSO or inhibitor were divided into 400 μL aliquots containing 10×10^6 cells and stimulated with supernatants of C305 hybridoma (31) for 2 min or left untreated. […] The total protein concentration in each cell lysate was determined by the Bradford protein assay (Bio-Rad) in order to normalize the amount of protein used in SDS-PAGE.
as §2

[2] = system: phosphorylation of ZAP-70; assay: Anti-pZAP (Tyr319) blot of JTAg cells; details: 50 μM, 1 h
Method: as §4, §2

[3] = system: phosphorylation of Lck at Tyr394; assay: Anti-pSrc (Tyr416) immunoblot of thymocytes from PTPN22+/+ mice; details: 50 μM, 1 h, anti-CD3/anti-CD4 plus streptavidin
Method: as §1, §2, §3

[4] = system: TCR-induced phosphorylation of SLP-76; assay: Phospho-flow cytometry of JTAg cells, anti-pSLP76 (Tyr128); details: 50 μM, 1 h, compared to control
Method: Phosphoflow cytometry. Phospho-flow cytometry was performed on JTAg cells following published protocols (BD Biosciences). […] Cell fluorescence was assessed on a Cytomics FC500 cytometer (Beckman Coulter) at the USC Immune Monitoring Core. Data Analysis and graph preparation were carried using FlowJo (Tree Star, Inc., Ashland, Oreg.).

[5] = LYP IC50, Table IV, analogues of E3P13
[6] = selectivity, ratio PEST IC50 / LYP IC50, Table IV

| Compound | IC50 (LYP/PTPN22; [5]) [µM] | PEST_LYP (LYP/PTPN22; [6]) | IC50 (PTP-PEST; read-out: PEST IC50) [µM] | PEST_LYP (LYP/PTPN22) | IC50 (LYP/PTPN22; LYP IC50) [µM] | other results |
| --- | --- | --- | --- | --- | --- | --- |
| O=C(CSc1nc(C2CC2)nc2sc3c(c12)CCCC3)NCc1ccc2c(c1)OCO2 [G8P15] |  |  |  |  |  | IC50 (HePTP): > 40 µM; IC50 (LMPTP-A): > 90 µM; IC50 (CD45): > 90 µM |
| Cc1ccc2[nH]c(=O)c([C@@H](c3nnnn3Cc3ccccc3)N3CCCC4(CCCCC4)C3)cc2c1 [compound 11] | 11.1 | 1.36 | 15.1 |  |  |  |
| Cc1cc(C)c2cc([C@H](c3nnnn3C(C)(C)C)N3CCCC4(CCCCC4)C3)c(=O)[nH]c2c1 [compound 28] | 19.7 | 1.33 | 26.1 |  |  |  |
| CCC(C)(C)n1nnnc1[C@@H](c1cc2cc(C)ccc2[nH]c1=O)N1CCCC2(CCCCC2)C1 [compound 9] | 10.4 | 1.53 | 15.9 |  |  |  |
| Cc1ccc2cc([C@H](c3nnnn3CC3CCCC3)N3CCCC4(CCCCC4)C3)c(=O)[nH]c2c1 [compound 23] | 17.1 | 2.22 | 38 |  |  |  |
| Cc1ccc2[nH]c(=O)c([C@H](c3nnnn3C3CCCC3)N3CCC(C)CC3)cc2c1 [compound 32] |  |  | 31.3 | 1.52 | 20.6 |  |
| Cc1ccc2cc([C@H](c3nnnn3C3CCCC3)N3CCC[C@@H](C)C3)c(=O)[nH]c2c1 [compound 43] | 31.9 | 2.52 | 80.3 |  |  |  |
| CCC(C)(C)n1nnnc1[C@@H](c1cc2cc(C)cc(C)c2[nH]c1=O)N1CCCC2(CCCCC2)C1 [compound 12] | 11.9 | 1.69 | 20.1 |  |  |  |
| Cc1cc(C)c2[nH]c(=O)c(C(c3nnnn3C3CCCC3)N3CCN(C(c4ccccc4)c4ccccc4)CC3)cc2c1 (stereo not shown) [compound 8] |  |  | 9.57 | 0.98 | 9.72 |  |
| Cc1cc(C)c2[nH]c(=O)c([C@H](c3nnnn3C(C)(C)C)N3CCCC4(CCCCC4)C3)cc2c1 [compound 19] | 13.6 | 2.27 | 30.8 |  |  |  |
| Cc1ccc2cc([C@H](c3nnnn3C3CCCC3)N3CCN(c4ccccc4)CC3)c(=O)[nH]c2c1 [compound 41] | 31 | ~1.18 | ~36.5 |  |  |  |
| Cc1ccc2[nH]c(=O)c([C@H](c3nnnn3C(C)(C)C)N3CCCC4(CCCCC4)C3)cc2c1 [compound 33] | 21.2 | 1.33 | 28.2 |  |  |  |
| Cc1cc(C)c2[nH]c(=O)c(C(c3nnnn3C3CCCC3)N3CCCC4(CCCCC4)C3)cc2c1 (stereo not shown) [compound 30] |  |  | 31.1 | 1.53 | 20.4 |  |
| COc1ccc(-n2ncc3c(SCC(=O)N4c5ccccc5CC4C)ncnc32)cc1 (racemic) [B11P32] |  |  |  |  |  | IC50 (LMPTP-A): > 90 µM; IC50 (PTP-PEST; Table II, read-out: PTP-PEST IC50): > 40 µM; IC50 (CD45): > 90 µM |
| Cc1ccc2cc(C(c3nnnn3C3CCCC3)N3CCN(C(c4ccccc4)c4ccccc4)CC3)c(=O)[nH]c2c1 (stereo not shown) [compound 5] |  |  | 9.66 | 0.81 | 7.86 |  |
| COc1ccc(N2CCN([C@H](c3cc4cc(C)ccc4[nH]c3=O)c3nnnn3C3CCCC3)CC2)cc1 [compound 42] |  |  | 40.5 | 1.27 | 31.7 |  |
| Cc1ccc2cc(C(c3nnnn3C3CCCC3)N3CCCC4(CCCCC4)C3)c(=O)[nH]c2c1C (stereo not shown) [compound 13] |  |  | 16.1 | 1.33 | 12.1 |  |
| Cc1cc(C)c2cc([C@H](c3nnnn3C3CCCC3)N3CCC[C@@H](C)C3)c(=O)[nH]c2c1 [compound 40] | 30.6 | 1.12 | 34.4 |  |  |  |
| Cc1ccc2cc(C(c3nnnn3C3CCCC3)N(Cc3ccccc3)Cc3ccc(C(C)C)cc3)c(=O)[nH]c2c1 (stereo not shown) [compound 4] |  |  | 9.96 | 1.31 | 7.62 |  |
| Cc1cc(C)c2[nH]c(=O)c([C@H](c3nnnn3C3CCCC3)N3CCC[C@@H](C)C3)cc2c1 [compound 49] | 39.5 | 1.15 | 45.5 |  |  |  |
| Cc1ccc2cc([C@H](c3nnnn3Cc3ccccc3)N3CCCC4(CCCCC4)C3)c(=O)[nH]c2c1C [compound 25] | 18.1 | 0.99 | 17.8 |  |  |  |
| Cc1ccc2[nH]c(=O)c([C@H](c3nnnn3C3CCCC3)N3CCN(c4ccccc4F)CC3)cc2c1 [compound 36] |  |  | 23.2 | 0.92 |  |  |
| CCC(C)(C)n1nnnc1[C@@H](c1cc2cccc(C)c2[nH]c1=O)N1CCCC2(CCCCC2)C1 [compound 18] | 13.4 | 0.96 | 12.9 |  |  |  |
| Cc1ccc2[nH]c(=O)c(C(c3nnnn3C3CCCC3)N3CCCC4(CCCCC4)C3)cc2c1 (racemic) [E3P13] |  |  |  |  |  | phosphorylation of Lck at Tyr394 [1]: no effect; ERK1/2 phosphorylation (ERK1/2 phosphorylation): increased ERK1/2 phosphorylation; TCR-stimulated phosphorylation of ZAP-70 (Tyr319) [2]: increased TCR-stimulated phosphorylation of ZAP-70; Lck phosphorylation at Tyr394 [3]: increased Lck phosphorylation at Tyr394; TCR-induced SLP-76 phosphorylation [4]: higher levels of TCR-induced SLP-76 phosphorylation |
| Cc1ccc2cc([C@@H](c3nnnn3C3CCCC3)N3CCCCC3)c(=O)[nH]c2c1 [compound 44] | 32.5 | 2.11 | 68.5 |  |  |  |
| Cc1cc(C)c2cc(C(c3nnnn3C3CCCC3)N3CCCC4(CCCCC4)C3)c(=O)[nH]c2c1 (stereo not shown) [compound 10] |  |  | 16 | 1.44 | 11.1 |  |
| Cc1ccc2[nH]c(=O)c(C(c3nnnn3C3CCCC3)N3CCN(C(c4ccccc4)c4ccccc4)CC3)cc2c1 (stereo not shown) [compound 3] |  |  | 8.71 | 1.38 | 6.3 |  |
| Cc1cccc2cc(C(c3nnnn3C3CCCC3)N3CCN(C(c4ccccc4)c4ccccc4)CC3)c(=O)[nH]c12 (stereo not shown) [compound 17] |  |  | 10.1 | 0.76 | 13.3 |  |

From patent publication US20100210836A1, “SMALL MOLECULE INHIBITORS OF LYMPHOID TYROSINE PHOSPHATASE” (University of Southern California, priority 2009, published 2010)
